Source: patent US8507523B2, “Therapeutic tetrahydroisoquinoline-based compositions for cancer therapy” (priority 2006, dated 2013)
Counter-ions that a name gives are not always drawn. Like-named read-outs stand apart in the source and are kept apart here.

What was measured:
C6 glioma = experiment: Dose response (percent survival) in C6 glioma cell cultures; assay type: cell-based, rat; conditions: C6 glioma cells, 4 days of treatment, percent survival
From the text: (§1) 6,7-Dimethoxy-1-[4-(4-methoxypyridin-3-yl)benzyl]-1,2,3,4-tetrahydroisoquinolinehydrochloride (EDL-291) was synthesized as described herein in the laboratory of Dr. Duane D. Miller at The University of Tennessee Health Science Center. Briefly, the primary cultures of astrocytes and cultures of C6 glioma cell lines were handled identically with respect to treatment concentrations and manipulations of cells for the screening assays. The cells were trypsinized and transferred to 96-well plates at a cell density of 10^3 cells/mm^2 in the wells. The cells were grown overnight in 100 μL of 10% FCS BME in a 37° C. incubator containing a humid, 5% CO2 atmosphere.
(§2) EDL291 was dissolved completely to make a […] stock solution and diluted to produce a series of concentrations. A 20 μL aliquot of these initial solutions was added to 180 μl of 2% FCS BME to produce the test concentration. The vehicle solution was tested as a control. […] Immediately before treatment, the 10% FCS BME was removed from the cells and replaced with the 180 μl of the treatment medium. The cultured cells (normal primary cultures of rat brain astrocytes or C6 glioma purchased from ATCC) were incubated with test compound for 4 days. The cells were fixed with 4% paraformaldehyde, stained with 0.1% Cresylecth violet stain, and quantitated. The screening data was collected as four wells for each dose per compound (screening) or concentration (dose response curve). Also, the average growth of 8 wells with no treatment was used as a negative control for each plate (100% growth). The cells for dose response curves were grown in the same media and were handled in a similar manner as in the screening assays.
(§3) The cytotoxic character of each compound was reported as the percent survival, calculated as the average A560 for treated cells divided by A560 of untreated (100% control) cells, and expressed as a percentage. Values less than 100% indicate a cytostatic or cytotoxic effect. Dose response curves and EC50 values were attained via plots of percent survival vs. concentration.

[1] = test system: normal primary cultures of rat brain astrocytes; experiment: Dose response (percent survival) in primary cultures of astrocytes; assay type: cell-based; conditions: 4 days of treatment
From the text: as §1, §2, §3

[2] = Rattus norvegicus, C6 glioma, 96 h
[3] = Rattus norvegicus, Astrocyte, 96 h

Row | Structure (SMILES) | EC50 (C6 glioma; [2]) | EC50 [1, 3] | EC50 μM Astrocyte [1] | other results
1 | COc1cc2c(cc1OC)C(Cc1ccc(-c3ccncc3)cc1)N(C(=O)OC(C)(C)C)CC2 (stereo not drawn) [Compound 3, 6,7-Dimethoxy-1-(4-pyridin-4-yl-benzyl)-3,4-dihydro-1H-isoquinoline-2-carboxylic acid tert-butyl ester] | 5.92 µM | 18.4 µM |  | 
2 | COc1cc2c(cc1OC)C(Cc1ccc(-c3ccncc3)cc1)NCC2 (stereo not drawn) [Compound 4, 6,7-Dimethoxy-1-(4-pyridin-4-ylbenzyl)-1,2,3,4-tetrahydroisoquinoline hydrochloride salt] | 17.7 µM | 74.4 µM |  | 
3 | COc1cc2c(cc1OC)C(Cc1ccc(-c3cccnc3OC)cc1)N(C(=O)OC(C)(C)C)CC2 (stereo not drawn) [Compound 6, 6,7-Dimethoxy-1-[4-(2-methoxypyridin-3-yl)benzyl]-3,4-dihydro-1H-isoquinoline-2-carboxylic acid tert-butyl ester] | 4.3 µM |  | No Effect | 
4 | COc1cc2c(cc1OC)C(Cc1ccc(-c3cccnc3OC)cc1)NCC2 (stereo not drawn) [Compound 7, 6,7-Dimethoxy-1-[4-(2-methoxypyridin-3-yl)benzyl]-1,2,3,4-tetrahydroisoquinoline hydrochloride salt] | 1.75 µM | 50 to 100 µM |  | 
5 | COc1cc2c(cc1OC)C(Cc1ccc(-c3cccnc3OC)cc1)N(C)CC2 (stereo not drawn) [Compound 8, 6,7-dimethoxy-1-[4-(2-methoxypyridin-3-yl)benzyl]-2-methyl-1,2,3,4-tetrahydro-isoquinoline] |  | 27.3 µM |  | EC50 (C6 glioma; listed as drawing 26): 2.2 µM
6 | COc1cc2c(cc1OC)C(Cc1ccc(-c3cccnc3OC)cc1)N(C)CC2 (stereo not drawn) [Compound 9, 6,7-Dimethoxy-1-[4-(2-methoxypyridin-3-yl)benzyl]-2-methyl-1,2,3,4-tetrahydroisoquinolinehydrochloride] |  |  |  | EC50 (C6 glioma; listed as drawing 27): 5.5 µM; EC50 ([1]; read-out: EC50 μM Astrocyte): 25.3 µM
7 | COc1cc2c(cc1OC)C(Cc1ccc(-c3ccncc3OC)cc1)N(C(=O)OC(C)(C)C)CC2 (stereo not drawn) [Compound 11, 6,7-Dimethoxy-1-[4-(3-methoxypyridin-4-yl)benzyl]-3,4-dihydro-1H-isoquinoline-2-carboxylic acid tert-butyl ester] | 4.4 µM | 13.6 µM |  | 
8 | COc1cc2c(cc1OC)C(Cc1ccc(-c3ccncc3OC)cc1)NCC2 (stereo not drawn) [Compound 12, 6,7-Dimethoxy-1-[4-(3-methoxypyridin-4-yl)benzyl]-1,2,3,4-tetrahydroisoquinoline hydrochloride salt] | 6.9 µM | 49.5 µM |  | 
9 | COc1cc2c(cc1OC)C(Cc1ccc(-c3ccccc3NS(C)(=O)=O)cc1)N(C(=O)OC(C)(C)C)CC2 (stereo not drawn) [Compound 14, 1-(2′-Methanesulfonylaminobiphenyl-4-ylmethyl)-6,7-dimethoxy-3,4-dihydro-1H-isoquinoline-2-carboxylic acid tert-butyl ester] | 6.2 µM |  | No Effect | 
10 | COc1cc2c(cc1OC)C(Cc1ccc(-c3ccccc3NS(C)(=O)=O)cc1)NCC2 (stereo not drawn) [Compound 15, N-[4′-(6,7-Dimethoxy-1,2,3,4-tetrahydroisoquinolin-1-ylmethyl)-biphenyl-2-yl]-methanesulfonamide hydrochloride salt] | 8.9 µM | 50 to 100 µM |  | 
11 | COc1cc2c(cc1OC)C(Cc1ccc(-c3ccccc3NC(C)=O)cc1)N(C(=O)OC(C)(C)C)CC2 (stereo not drawn) [Compound 17, 1-(2′-Acetylaminobiphenyl-4-ylmethyl)-6,7-dimethoxy-3,4-dihydro-1H-isoquinoline-2-carboxylic acid tert-butyl ester] | 9.2 µM |  | No Effect | 
12 | COc1cc2c(cc1OC)C(Cc1ccc(-c3ccccc3NC(C)=O)cc1)NCC2.Cl (stereo not drawn) [Compound 18, N-[4′-(6,7-Dimethoxy-1,2,3,4-tetrahydroisoquinolin-1-ylmethyl)biphenyl-2-yl]acetamide hydrochloride salt] | 22.4 µM |  | No Effect | 
13 | COc1cc2c(cc1OC)C(Cc1ccc(-c3cnccc3OC)cc1)N(C(=O)OC(C)(C)C)CC2 (stereo not drawn) [Compound 20, 6,7-Dimethoxy-1-[4-(4-methoxypyridin-3-yl)benzyl]-3,4-dihydro-1H-isoquinoline-2-carboxylic acid tert-butyl ester] | 5.9 µM | 12.2 µM |  | 
14 | COc1cc2c(cc1OC)C(Cc1ccc(-c3cnccc3OC)cc1)N(C)CC2 (stereo not drawn) [Compound 23, 6,7-Dimethoxy-1-[4-(4-methoxypyridin-3-yl)benzyl]-2-methyl-1,2,3,4-tetrahydroisoquinoline hydrochloride] | 3.3 µM | 28.2 µM |  | 
15 | COc1ncc(-c2ccc(CC3c4cc(OC)c(OC)cc4CCN3C(=O)OC(C)(C)C)cc2)c(OC)n1 (stereo not drawn) [Compound 25, 1-[4-(2,4-Dimethoxypyrimidin-5-yl)benzyl]-6,7-dimethoxy-3,4-dihydro-1H-isoquinoline-2-carboxylic acid tert-butyl ester] | 6.8 µM |  | No Effect | 
16 | COc1ncc(-c2ccc(CC3NCCc4cc(OC)c(OC)cc43)cc2)c(OC)n1 (stereo not drawn) [Compound 26, 1-[4-(2,4-Dimethoxypyrimidin-5-yl)benzyl]-6,7-dimethoxy-1,2,3,4-tetrahydroisoquinoline hydrochloride] | 9.3 µM | 34 µM |  | 
17 | COc1cc2c(cc1OC)C(Cc1ccc(-c3cncnc3)cc1)N(C(=O)OC(C)(C)C)CC2 (stereo not drawn) [Compound 28, 6,7-Dimethoxy-1-(4-pyrimidin-5-ylbenzyl)-3,4-dihydro-1H-isoquinoline-2-carboxylic acid tert-butyl ester] | 15.2 µM |  | No Effect | 
18 | COc1cc2c(cc1OC)C(Cc1ccc(-c3cncnc3)cc1)NCC2.Cl (stereo not drawn) [Compound 29, 6,7-Dimethoxy-1-(4-pyrimidin-5-ylbenzyl)-1,2,3,4-tetrahydroisoquinoline hydrochloride] | 39.4 µM |  | No Effect | 
19 | COc1cc2c(cc1OC)C(Cc1ccc(-c3cccnc3Cl)cc1)N(C(=O)OC(C)(C)C)CC2 (stereo not drawn) [Compound 31, 1-[4-(2-Chloro-pyridin-3-yl)benzyl]-6,7-dimethoxy-3,4-dihydro-1H-isoquinoline-2-carboxylic acid tert-butyl ester] | 3.5 µM |  | No Effect | 
20 | COc1cc2c(cc1OC)C(Cc1ccc(-c3cccnc3Cl)cc1)NCC2 (stereo not drawn) [Compound 32, 1-[4-(2-Chloro-pyridin-3-yl)benzyl]-6,7-dimethoxy-1,2,3,4-tetrahydroisoquinoline hydrochloride] | 2.7 µM | 28.2 µM |  | 
21 | CC(C)(C)OC(=O)N1CCc2cc3c(cc2C1Cc1ccc(-c2cnccc2Cl)cc1)OCO3 (stereo not drawn) [Compound 40, 5-[4-(4-Chloropyridin-3-yl)benzyl]-7,8-dihydro-5H-[1,3]dioxolo[4,5-g]isoquinoline-6-carboxylic acid tert-butyl ester] | 6.3 µM | 37.5 µM |  | 
22 | Clc1ccncc1-c1ccc(CC2NCCc3cc4c(cc32)OCO4)cc1 (stereo not drawn) [Compound 42, 5-[4-(4-Chloropyridin-3-yl)benzyl]-5,6,7,8-tetrahydro-[1,3]dioxolo[4,5-g]isoquinoline dihydrochloride salt] | 2.5 µM | 81.5 µM |  | 
23 | COc1ccncc1-c1ccc(CC2c3cc4c(cc3CCN2C(=O)OC(C)(C)C)OCO4)cc1 (stereo not drawn) [Compound 43, 5-[4-(4-methoxypyridin-3-yl)benzyl]-7,8-dihydro-5H-[1,3]dioxolo[4,5-g]isoquinoline-6-carboxylic acid tert-butyl ester] | 5.8 µM | 12.4 µM |  | 
24 | COc1ccncc1-c1ccc(CC2NCCc3cc4c(cc32)OCO4)cc1 (stereo not drawn) [Compound 45, 5-[4-(4-methoxypyridin-3-yl)benzyl]-5,6,7,8-tetrahydro-[1,3]dioxolo[4,5-g]isoquinoline dihydrochloride salt] | 1.3 µM | 8.3 µM |  | 
